Measurements: the NIST ThermoML archive (doi:10.1021/je900596d)
Numbers after ± are expanded uncertainties.

Conditions: for mass density: Vibrating tube method

FC(F)=C(F)C(F)(F)F [hexafluoropropene]
mass density (283.17 K, 9991.1 kPa, Liquid): 1439.48 ± 1.5 kg/m3
vapor or sublimation pressure (283.23 K, Liquid, Closed cell (Static) method): 459 ± 1.3 kPa
mass density (283.24 K, 3.6 kPa, Fluid (supercritical or subcritical phases)): 0.14 ± 0.03 kg/m3
mass density (283.24 K, 4 kPa, Fluid (supercritical or subcritical phases)): 0.18 ± 0.03 kg/m3
mass density (283.24 K, 4.5 kPa, Fluid (supercritical or subcritical phases)): 0.18 ± 0.03 kg/m3
mass density (283.24 K, 5.1 kPa, Fluid (supercritical or subcritical phases)): 0.27 ± 0.03 kg/m3
mass density (283.24 K, 6 kPa, Fluid (supercritical or subcritical phases)): 0.3 ± 0.03 kg/m3
mass density (283.24 K, 7.2 kPa, Fluid (supercritical or subcritical phases)): 0.31 ± 0.03 kg/m3
mass density (283.24 K, 8.2 kPa, Fluid (supercritical or subcritical phases)): 0.4 ± 0.03 kg/m3
mass density (283.24 K, 9.1 kPa, Fluid (supercritical or subcritical phases)): 0.47 ± 0.03 kg/m3
mass density (283.24 K, 9.8 kPa, Fluid (supercritical or subcritical phases)): 0.52 ± 0.03 kg/m3
mass density (283.24 K, 10.8 kPa, Fluid (supercritical or subcritical phases)): 0.56 ± 0.03 kg/m3
mass density (283.24 K, 11.8 kPa, Fluid (supercritical or subcritical phases)): 0.65 ± 0.03 kg/m3
mass density (283.24 K, 12.6 kPa, Fluid (supercritical or subcritical phases)): 0.7 ± 0.03 kg/m3
mass density (283.24 K, 13.4 kPa, Fluid (supercritical or subcritical phases)): 0.85 ± 0.03 kg/m3
mass density (283.24 K, 14.4 kPa, Fluid (supercritical or subcritical phases)): 0.85 ± 0.03 kg/m3
mass density (283.24 K, 15.2 kPa, Fluid (supercritical or subcritical phases)): 0.87 ± 0.03 kg/m3
mass density (283.24 K, 16 kPa, Fluid (supercritical or subcritical phases)): 0.88 ± 0.03 kg/m3
mass density (283.24 K, 17 kPa, Fluid (supercritical or subcritical phases)): 0.98 ± 0.03 kg/m3
mass density (283.24 K, 18.1 kPa, Fluid (supercritical or subcritical phases)): 1.01 ± 0.03 kg/m3
mass density (283.24 K, 19.2 kPa, Fluid (supercritical or subcritical phases)): 1.12 ± 0.03 kg/m3
mass density (283.24 K, 20.3 kPa, Fluid (supercritical or subcritical phases)): 1.19 ± 0.03 kg/m3
mass density (283.24 K, 21.5 kPa, Fluid (supercritical or subcritical phases)): 1.25 ± 0.03 kg/m3
mass density (283.24 K, 22.7 kPa, Fluid (supercritical or subcritical phases)): 1.31 ± 0.03 kg/m3
mass density (283.24 K, 23.9 kPa, Fluid (supercritical or subcritical phases)): 1.47 ± 0.03 kg/m3
mass density (283.24 K, 25.1 kPa, Fluid (supercritical or subcritical phases)): 1.47 ± 0.03 kg/m3
mass density (283.24 K, 26.3 kPa, Fluid (supercritical or subcritical phases)): 1.57 ± 0.03 kg/m3
mass density (283.24 K, 27.6 kPa, Fluid (supercritical or subcritical phases)): 1.66 ± 0.03 kg/m3
mass density (283.24 K, 28.8 kPa, Fluid (supercritical or subcritical phases)): 1.74 ± 0.03 kg/m3
mass density (283.24 K, 30 kPa, Fluid (supercritical or subcritical phases)): 1.8 ± 0.03 kg/m3
mass density (283.24 K, 31.2 kPa, Fluid (supercritical or subcritical phases)): 1.87 ± 0.03 kg/m3
mass density (283.24 K, 32.6 kPa, Fluid (supercritical or subcritical phases)): 1.92 ± 0.03 kg/m3
mass density (283.24 K, 33.8 kPa, Fluid (supercritical or subcritical phases)): 2.04 ± 0.03 kg/m3
mass density (283.24 K, 35.1 kPa, Fluid (supercritical or subcritical phases)): 2.16 ± 0.03 kg/m3
mass density (283.24 K, 36.3 kPa, Fluid (supercritical or subcritical phases)): 2.23 ± 0.03 kg/m3
mass density (283.24 K, 37.6 kPa, Fluid (supercritical or subcritical phases)): 2.25 ± 0.03 kg/m3
mass density (283.24 K, 38.8 kPa, Fluid (supercritical or subcritical phases)): 2.33 ± 0.03 kg/m3
mass density (283.24 K, 40.1 kPa, Fluid (supercritical or subcritical phases)): 2.39 ± 0.03 kg/m3
mass density (283.24 K, 41.4 kPa, Fluid (supercritical or subcritical phases)): 2.51 ± 0.03 kg/m3
mass density (283.24 K, 42.6 kPa, Fluid (supercritical or subcritical phases)): 2.65 ± 0.03 kg/m3
mass density (283.24 K, 43.9 kPa, Fluid (supercritical or subcritical phases)): 2.74 ± 0.03 kg/m3
mass density (283.24 K, 45.1 kPa, Fluid (supercritical or subcritical phases)): 2.76 ± 0.03 kg/m3
mass density (283.24 K, 46.4 kPa, Fluid (supercritical or subcritical phases)): 2.84 ± 0.03 kg/m3
mass density (283.24 K, 47.7 kPa, Fluid (supercritical or subcritical phases)): 2.93 ± 0.03 kg/m3
mass density (283.24 K, 49 kPa, Fluid (supercritical or subcritical phases)): 3.04 ± 0.03 kg/m3
mass density (283.24 K, 50.2 kPa, Fluid (supercritical or subcritical phases)): 3.09 ± 0.03 kg/m3
mass density (283.24 K, 52.8 kPa, Fluid (supercritical or subcritical phases)): 3.28 ± 0.03 kg/m3
mass density (283.24 K, 55.4 kPa, Fluid (supercritical or subcritical phases)): 3.44 ± 0.03 kg/m3
mass density (283.24 K, 58.1 kPa, Fluid (supercritical or subcritical phases)): 3.61 ± 0.03 kg/m3
mass density (283.24 K, 60.8 kPa, Fluid (supercritical or subcritical phases)): 3.81 ± 0.03 kg/m3
mass density (283.24 K, 63.5 kPa, Fluid (supercritical or subcritical phases)): 3.98 ± 0.03 kg/m3
mass density (283.24 K, 69.3 kPa, Fluid (supercritical or subcritical phases)): 4.38 ± 0.03 kg/m3
mass density (283.24 K, 72.2 kPa, Fluid (supercritical or subcritical phases)): 4.52 ± 0.03 kg/m3
mass density (283.24 K, 75.2 kPa, Fluid (supercritical or subcritical phases)): 4.75 ± 0.03 kg/m3
mass density (283.24 K, 78.1 kPa, Fluid (supercritical or subcritical phases)): 4.95 ± 0.03 kg/m3
mass density (283.24 K, 81.2 kPa, Fluid (supercritical or subcritical phases)): 5.2 ± 0.03 kg/m3
mass density (283.24 K, 84.2 kPa, Fluid (supercritical or subcritical phases)): 5.34 ± 0.03 kg/m3
mass density (283.24 K, 87.2 kPa, Fluid (supercritical or subcritical phases)): 5.58 ± 0.03 kg/m3
mass density (283.24 K, 90.3 kPa, Fluid (supercritical or subcritical phases)): 5.77 ± 0.03 kg/m3
mass density (283.24 K, 93.4 kPa, Fluid (supercritical or subcritical phases)): 6 ± 0.03 kg/m3
mass density (283.24 K, 96.5 kPa, Fluid (supercritical or subcritical phases)): 6.19 ± 0.03 kg/m3
mass density (283.24 K, 99.6 kPa, Fluid (supercritical or subcritical phases)): 6.44 ± 0.03 kg/m3
mass density (283.24 K, 102 kPa, Fluid (supercritical or subcritical phases)): 6.55 ± 0.03 kg/m3
mass density (283.24 K, 104.4 kPa, Fluid (supercritical or subcritical phases)): 6.69 ± 0.03 kg/m3
mass density (283.24 K, 106.7 kPa, Fluid (supercritical or subcritical phases)): 6.88 ± 0.03 kg/m3
mass density (283.24 K, 109.2 kPa, Fluid (supercritical or subcritical phases)): 7.05 ± 0.03 kg/m3
mass density (283.24 K, 111.6 kPa, Fluid (supercritical or subcritical phases)): 7.23 ± 0.03 kg/m3
